Laboratory results from US8952128B2, “Somatostatin-dopamine chimeric analogs” (priority 2012, dated 2015).
Like-named read-outs stand apart in the source and are kept apart here. Numbered stars: 1 amine (or outer) side, 2 acyl side, 3 side chain; on linkers, the order of the positions; unused ones are H or OH. Bridge positions count the residues as written; N and C are the ends. Square brackets hold non-standard residues; d marks the D form. Peptide text beside a SMILES is read from it. X1 = CN1C[C@H](CSCCN(CCSC[C@@H]2C[C@@H]3c4cccc5[nH]cc(c45)C[C@H]3N(C)C2)[C@H](CCCCN[*:2])C(=O)[*:1])C[C@@H]2c3cccc4[nH]cc(c34)C[C@H]21

What was measured:
hDRD2 [1] = target: T1, hDRD2 (Homo sapiens (Human), UniProt P14416); test: cell-based
Procedure: (§5) The ability of select compounds according to the present invention to activate hSSTR2 and hDRD2 was determined by the intracellular calcium mobilization assay using FLIPR Calcium 4 assay kit (Molecular Devices).
(§6) Cells expressing hSSTR2 or hDRD2 were plated in 384-well microplates in tissue culture media and incubated for 16-24 hours at 37° C. in a humidified atmosphere with 5% CO2. Medium was replaced by loading buffer containing Hank's buffered saline, 20 mM HEPES, 2.5 mM probenecid and Calcium 4 dye, and the plates were incubated at 37° C. for 60 minutes.

hSSTR2 [2] = target: T2, hSSTR2 (Homo sapiens (Human), UniProt P30874); test: Intracellular calcium mobilization assay (FLIPR Calcium 4), hSSTR2; type: cell-based; details: for Emax: read-out: hSSTR2 % Emax ± SEM;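 for all read-outs here: agonist activity read as intracellular calcium rise in cells expressing human SSTR2, loaded with a calcium-sensitive dye for 60 min at 37 °C, measured by FLIPR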
Procedure: as §5, §6

[3] = system: pituitary tumor cells of acromegalic patients presenting with macroadenoma; test: Human pituitary adenoma cell growth hormone release assay; type: cell-based; details: 18 hours incubation, FIG. 5
Procedure: FIG. 1 is a graph showing the Growth hormone suppressing activity of Compound 4 (see Table I hereinbelow for its chemical name and its corresponding structural representation) on pituitary tumor cells of acromegalic patients presenting with macroadenoma. Various concentrations of Compound 4 were added to the medium and the cells were incubated for 18 hours before measurement of Growth hormone levels in the medium using the AlphaLISA Growth Hormone Immunoassay Research kit (PerkinElmer).
Various concentrations of Compounds 4 and 5 were added to the medium and the cells were incubated for 18 hours before measurement of Growth hormone levels in the medium using the AlphaLISA Growth Hormone Immunoassay Research kit (PerkinElmer).
Acromegalic patients presenting with macroadenoma underwent transsphenoidal surgery and a portion of each tumor obtained at surgery was dissociated by enzymatic and mechanical methods. The cells were cultured in DMEM medium supplemented with 10% FBS and antibiotics for 3 days. The cells were then plated in multi-well tissue culture dishes coated with extracellular matrix from bovine endothelial corneal cells at a density of 3-5×10^4 cells/well in DMEM supplemented with 10% FBS and antibiotics. After 2-3 days of culture, the medium was changed to DMEM supplemented with 1% FBS, antibiotics and 1% ITS (insulin, transferrin and selenium).

hSSTR3 = hSSTR3 (Homo sapiens (Human), UniProt P32745); test: Somatostatin receptor radioligand binding assay, hSSTR3; details: CHO-K1 membranes, [125I-Tyr11]-SRIF-14; read-out: hSSTR3 Ki (nM) ± SEM
Procedure: (§1) The affinities of a test compound for the human somatostatin receptors were determined by radioligand binding assays in CHO-K1 cells stably transfected with each of the human somatostatin receptor subtypes, hSSTR1-5. […] Clonal cell lines stably expressing each of the somatostatin receptors were obtained by transfection into CHO-K1 cells (ATCC) and subsequently selected with culture media containing 0.8 mg/mL of G418 (Life Technologies).
(§2) Membranes for in vitro receptor binding assays were obtained by the following procedures. CHO-K1 cells expressing one of the somatostatin receptors were homogenized in ice-cold buffer with 10 mM Tris-HCl, 5 mM EDTA, 3 mM EGTA, 1 mM phenylmethylsuphonyl fluoride, pH 7.6, using Polytron PT10-35GT (Kinematica) at 18,000 rpm for 30 seconds and centrifuged at 500×g for 10 minutes. The supernatant containing the plasma membranes was centrifuged at 100,000×g for 30 minutes and the pellet was resuspended in buffer containing 20 mM glycine-glycine, 1 mM MgCl2, 250 mM sucrose, pH 7.2, for storage at −80° C.
(§3) For the hSSTR3 and 4 assays, membranes and various concentrations of test compounds were incubated in 96-well plates for 60 minutes at 25° C. with 0.05 nM [^125I-Tyr^11]-SRIF-14 (PerkinElmer Life Science) in 50 mM HEPES, 0.2% BSA, 5 mM MgCl2, 200 KIU/mL trasylol, 0.02 mg/mL bacitracin, and 0.02 mg/mL phenylmethylsuphonyl fluoride, pH 7.5.
(§4) The incubations were terminated by rapid filtration through GF/C glass microfiber filter plates (pre-wet with 0.3% polyethyleneimine and 0.1% BSA) using a 96-well cell harvester (Brandel). Plates were washed six times with 1 mL/well aliquots of ice-cold buffer containing 50 mM Tris buffer, pH 7.7. Specific binding was defined as the total radioligand bound minus the bound in the presence of 1000 nM SRIF-14.

hSSTR4 = hSSTR4 (Homo sapiens (Human), UniProt P31391); test: Somatostatin receptor radioligand binding assay, hSSTR4; details: CHO-K1 membranes, [125I-Tyr11]-SRIF-14; read-out: hSSTR4 Ki (nM) ± SEM
Procedure: as §1, §2, §3, §4

hSSTR2 [4] = target: T2, hSSTR2; test: Somatostatin receptor radioligand binding assay, hSSTR2; details: CHO-K1 membranes, [125I-Tyr]-seglitide; read-out: hSSTR2 Ki (nM) ± SEM
Procedure: The affinities of a test compound for the human somatostatin receptors were determined by radioligand binding assays in CHO-K1 cells stably transfected with each of the human somatostatin receptor subtypes, hSSTR1-5. The cDNA coding sequences of hSSTR1 (GenBank accession No. NM—001049.1), hSSTR2 (GenBank accession No. XM—012697.1), hSSTR3 (GenBank accession No. XM—009963.1), hSSTR4 (GenBank accession No. NM—001052.1), and hSSTR5 (GenBank accession No. XM—012565.1) were subcloned into the mammalian expression vector pcDNA3.1 (Life Technologies). Clonal cell lines stably expressing each of the somatostatin receptors were obtained by transfection into CHO-K1 cells (ATCC) and subsequently selected with culture media containing 0.8 mg/mL of G418 (Life Technologies).
Membranes for in vitro receptor binding assays were obtained by the following procedures. […] The supernatant containing the plasma membranes was centrifuged at 100,000×g for 30 minutes and the pellet was resuspended in buffer containing 20 mM glycine-glycine, 1 mM MgCl2, 250 mM sucrose, pH 7.2, for storage at −80° C. […]

hDRD2 [5] = target: T1, hDRD2; type: binding; details: CHO-K1 membranes, [3H]-spiperone; read-out: hDRD2 Ki (nM) ± SEM

T2 sequence (P30874 whole entry): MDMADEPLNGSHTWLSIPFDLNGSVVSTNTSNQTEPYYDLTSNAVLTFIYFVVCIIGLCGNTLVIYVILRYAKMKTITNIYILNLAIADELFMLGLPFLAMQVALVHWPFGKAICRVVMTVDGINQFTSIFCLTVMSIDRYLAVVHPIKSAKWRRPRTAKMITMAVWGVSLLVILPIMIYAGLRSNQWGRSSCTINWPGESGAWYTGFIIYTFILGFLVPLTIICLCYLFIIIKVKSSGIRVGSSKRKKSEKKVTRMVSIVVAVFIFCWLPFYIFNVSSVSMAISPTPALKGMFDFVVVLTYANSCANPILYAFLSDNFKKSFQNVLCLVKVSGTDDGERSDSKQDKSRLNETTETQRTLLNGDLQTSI
Chain of hSSTR3 (P32745 whole entry): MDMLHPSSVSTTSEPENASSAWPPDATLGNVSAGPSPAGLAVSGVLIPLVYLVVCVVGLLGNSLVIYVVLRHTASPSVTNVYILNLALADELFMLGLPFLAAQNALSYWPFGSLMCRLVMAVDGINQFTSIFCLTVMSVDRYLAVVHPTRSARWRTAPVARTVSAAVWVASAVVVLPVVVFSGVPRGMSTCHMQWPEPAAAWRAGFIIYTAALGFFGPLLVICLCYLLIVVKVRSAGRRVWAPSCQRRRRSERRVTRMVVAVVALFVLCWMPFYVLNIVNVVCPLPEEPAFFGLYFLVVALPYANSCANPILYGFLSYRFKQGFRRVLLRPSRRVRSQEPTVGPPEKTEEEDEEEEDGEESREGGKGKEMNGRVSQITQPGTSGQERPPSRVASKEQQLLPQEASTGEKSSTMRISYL
Chain of hSSTR4 (P31391 whole entry): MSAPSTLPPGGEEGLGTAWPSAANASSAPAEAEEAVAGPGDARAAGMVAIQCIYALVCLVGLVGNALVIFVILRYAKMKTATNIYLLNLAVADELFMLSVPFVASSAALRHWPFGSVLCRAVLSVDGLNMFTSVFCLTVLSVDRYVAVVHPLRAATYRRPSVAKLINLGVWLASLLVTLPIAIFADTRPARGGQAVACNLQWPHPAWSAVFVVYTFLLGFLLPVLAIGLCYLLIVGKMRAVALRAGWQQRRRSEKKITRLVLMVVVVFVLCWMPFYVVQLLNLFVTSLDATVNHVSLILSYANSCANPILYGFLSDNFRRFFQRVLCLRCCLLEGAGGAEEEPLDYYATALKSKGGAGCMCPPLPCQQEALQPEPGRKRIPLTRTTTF

Row | Structure (SMILES) | EC50 (hDRD2 [1]) | EC50 (hSSTR2 [2]) | improvement in EC50 and/or % Emax over Reference Compound B (hSSTR2 [2]; calcium mobilization) | Emax (hSSTR2 [2]) | Growth hormone suppressing activity compared to parent somatostatin analogs [3] | other results
1 | C[C@@H](O)[C@@H]1NC(=O)[C@H](CCCCN)NC(=O)[C@@H](Cc2c[nH]c3ccccc23)NC(=O)[C@H](Cc2ccncc2)NC(=O)[C@H](Cc2ccccc2)NC(=O)[C@H](CCCNC(=N)N)NC(=O)[C@H](NC[C@H](Cc2ccc(O)cc2)NC(=O)CSC[C@@H]2C[C@@H]3c4cccc5[nH]cc(c45)C[C@H]3N(C)C2)CCCCNC(=O)[C@H](Cc2ccccc2)NC1=O [Compound 4, Dop1-Tyr-psi(CH2NH)-cyclo(DLys-Arg-Phe-4Pal-DTrp-Lys-Thr-Phe)] | 20.1 ± 2.6 nM | 7.6 ± 1.5 nM | statistically significant improvement | 100 ± 2.9% | enhanced Growth hormone suppressing activity | –
2 | C[C@@H](O)[C@@H]1NC(=O)[C@H](CCCCN)NC(=O)[C@@H](Cc2c[nH]c3ccccc23)NC(=O)[C@H](Cc2ccccc2)NC(=O)[C@H](Cc2ccccc2)NC(=O)[C@H](CCCNC(=N)N)NC(=O)[C@H](NC[C@H](Cc2ccc(O)cc2)NC(=O)CSC[C@@H]2C[C@@H]3c4cccc5[nH]cc(c45)C[C@H]3N(C)C2)CCCCNC(=O)[C@H](Cc2ccc(F)cc2)NC1=O [Compound 5, Dop1-Tyr-psi(CH2NH)-cyclo(DLys-Arg-Phe-Phe-DTrp-Lys-Thr-4FPhe)] | 30.1 ± 5.3 nM | 14.6 ± 1.9 nM | statistically significant improvement | 97 ± 3.6% | enhanced Growth hormone suppressing activity | –
3 | C[C@@H](O)[C@@H]1NC(=O)[C@H](CCCCN)NC(=O)[C@@H](Cc2c[nH]c3ccccc23)NC(=O)[C@H](Cc2ccncc2)NC(=O)[C@H](Cc2ccccc2)NC(=O)[C@H](CCCNC(=N)N)NC(=O)[C@H](NCC[S@@+]([O-])C[C@@H]2C[C@@H]3c4cccc5[nH]cc(c45)C[C@H]3N(C)C2)CCCCNC(=O)[C@H](Cc2ccc(O)cc2)NC1=O [Compound 12, Dop1[(S)SO]-psi(CH2NH)-cyclo(DLys-Arg-Phe-4Pal-DTrp-Lys-Thr-Tyr)] | – | – | – | 90.9 ± 12.9% | – | Ki (hSSTR3): 143 ± 65.2 nM; Ki (hSSTR4): 3.2 ± 0.7 nM
4 | C[C@@H](O)[C@@H]1NC(=O)[C@H](CCCCN)NC(=O)[C@@H](Cc2c[nH]c3ccccc23)NC(=O)[C@H](Cc2cccnc2)NC(=O)[C@H](Cc2ccccc2)NC(=O)[C@H](CCCNC(=N)N)NC(=O)[C@H](NC[C@H](Cc2ccc(O)cc2)NC(=O)CSC[C@@H]2C[C@@H]3c4cccc5[nH]cc(c45)C[C@H]3N(C)C2)CCCCNC(=O)[C@H](Cc2ccccc2)NC1=O [Compound 38, Dop1-Tyr-psi(CH2NH)-cyclo(DLys-Arg-Phe-3Pal-DTrp-Lys-Thr-Phe)] | 7.5 ± 0.1 nM | – | – | – | – | Ki (hSSTR2 [4]): 0.76 ± 0.23 nM; EC50 (hSSTR2 [2]; calcium mobilization, read-out: hSSTR2 EC50 (nM) ± SEM): 24.9 ± 7.7 nM; Emax (hSSTR2 [2]; maximal effect in percentage of the maximal effect of SRIF-14): 83.5 ± 4.4%
5 | C[C@@H](O)[C@@H]1NC(=O)[C@H](CCCCN)NC(=O)[C@@H](Cc2c[nH]c3ccccc23)NC(=O)[C@H](Cc2ccccc2)NC(=O)[C@H](Cc2ccccc2)NC(=O)[C@H](CCCNC(=N)N)NC(=O)[C@H](N(CCSC[C@@H]2C[C@@H]3c4cccc5[nH]cc(c45)C[C@H]3N(C)C2)CCSC[C@@H]2C[C@@H]3c4cccc5[nH]cc(c45)C[C@H]3N(C)C2)CCCCNC(=O)[C@H](Cc2ccccc2)NC1=O [Compound 40, bis[Dop1-psi(CH2N)]-cyclo(DLys-Arg-Phe-Phe-DTrp-Lys-Thr-Phe)] (RFF[dW]KTF; linker N-C via X1) | – | – | – | 95 ± 6.1% | – | Ki (hDRD2 [5]): 445 ± 143 nM
